From publication PMC10176470, “Engaging a Non-catalytic Cysteine Residue Drives Potent and Selective Inhibition of Caspase-6” (Journal of the American Chemical Society, 2023)

Assays:
Assay in all cases: SILAC proteomics / in-gel fluorescence, competition of probe 13-t labeling by 3a
[1] = biological target: proteins of HEK293T cells transiently overexpressing caspase-6 (Homo sapiens, UniProt O00571)
[2] = biological target: proteins of HEK293T cells transiently overexpressing caspase-6 (Homo sapiens, UniProt P52209); conditions: Comp; protein PGD P52209
[3] = biological target: proteins of HEK293T cells transiently overexpressing caspase-6 (Homo sapiens, UniProt P63244); conditions: Comp; protein GNB2L1 P63244
[4] = biological target: proteins of HEK293T cells transiently overexpressing caspase-6 (Homo sapiens, UniProt Q9BZZ5); conditions: Comp; protein API5 Q9BZZ5
[5] = biological target: proteins of HEK293T cells transiently overexpressing caspase-6 (Homo sapiens, UniProt Q04917); conditions: Comp; protein YWHAH Q04917
[6] = biological target: proteins of HEK293T cells transiently overexpressing caspase-6 (Homo sapiens, UniProt P12268)
[7] = biological target: proteins of HEK293T cells transiently overexpressing caspase-6 (Homo sapiens, UniProt P27708)
[8] = biological target: proteins of HEK293T cells transiently overexpressing caspase-6 (Homo sapiens, UniProt P05388); conditions: Comp; protein RPLP0 P05388
[9] = biological target: proteins of HEK293T cells transiently overexpressing caspase-6 (Homo sapiens, UniProt Q15185); conditions: Comp; protein PTGES3 Q15185
[10] = biological target: proteins of HEK293T cells transiently overexpressing caspase-6 (Homo sapiens, UniProt P11142); conditions: Comp; protein HSPA8 P11142
[11] = biological target: T1, proteins of HEK293T cells transiently overexpressing caspase-6 (Homo sapiens, UniProt O43175); conditions: Comp; protein PHGDH O43175
T1 sequence (O43175 1-533): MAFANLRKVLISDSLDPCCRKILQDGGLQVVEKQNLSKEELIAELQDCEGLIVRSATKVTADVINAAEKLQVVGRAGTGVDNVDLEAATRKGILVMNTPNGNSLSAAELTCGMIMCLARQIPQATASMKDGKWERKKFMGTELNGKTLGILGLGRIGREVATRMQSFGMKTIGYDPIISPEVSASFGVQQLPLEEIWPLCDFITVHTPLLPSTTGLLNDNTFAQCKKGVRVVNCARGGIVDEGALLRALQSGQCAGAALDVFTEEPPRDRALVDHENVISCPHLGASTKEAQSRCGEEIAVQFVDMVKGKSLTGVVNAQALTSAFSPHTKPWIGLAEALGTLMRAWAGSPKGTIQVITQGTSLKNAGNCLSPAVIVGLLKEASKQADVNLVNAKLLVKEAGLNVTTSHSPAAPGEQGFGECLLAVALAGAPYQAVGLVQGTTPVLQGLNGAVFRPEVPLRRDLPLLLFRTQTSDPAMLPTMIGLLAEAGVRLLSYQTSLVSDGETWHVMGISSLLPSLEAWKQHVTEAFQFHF

[12] = biological target: proteins of HEK293T cells transiently overexpressing caspase-6 (Homo sapiens, UniProt Q13347)
[13] = biological target: proteins of HEK293T cells transiently overexpressing caspase-6 (Homo sapiens, UniProt P60900); conditions: Comp; protein PSMA6 P60900
[14] = biological target: T2, proteins of HEK293T cells transiently overexpressing caspase-6 (Homo sapiens, UniProt P22234); conditions: Comp; protein PAICS P22234
T2 sequence (P22234 1-425): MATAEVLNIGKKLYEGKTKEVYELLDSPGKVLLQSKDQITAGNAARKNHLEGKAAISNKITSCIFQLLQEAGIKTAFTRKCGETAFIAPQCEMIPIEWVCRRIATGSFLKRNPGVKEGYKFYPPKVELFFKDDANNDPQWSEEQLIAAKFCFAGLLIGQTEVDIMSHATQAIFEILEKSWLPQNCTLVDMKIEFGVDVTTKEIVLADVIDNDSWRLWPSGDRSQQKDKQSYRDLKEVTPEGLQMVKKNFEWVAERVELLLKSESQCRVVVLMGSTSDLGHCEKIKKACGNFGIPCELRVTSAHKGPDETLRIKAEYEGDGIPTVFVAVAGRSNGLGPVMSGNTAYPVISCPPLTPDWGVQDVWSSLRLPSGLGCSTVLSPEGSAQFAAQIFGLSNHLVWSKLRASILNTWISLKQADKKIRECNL

[15] = biological target: proteins of HEK293T cells transiently overexpressing caspase-6 (Homo sapiens, UniProt P14868); conditions: Comp; protein DARS P14868
[16] = protein DDX3X (O00571), Exp Comp, analysis C6, p 0.1250, 4 peptides
[17] = protein IMPDH2 (P12268), Exp Comp, analysis C6, p 0.0078, 8 peptides
[18] = protein CAD (P27708), Exp Comp, analysis C6, p 0.5000, 2 peptides
[19] = protein EIF3I (Q13347), Exp Comp, analysis C6, p 0.0625, 5 peptides

`C=CS(=O)(=O)N1C[C@H](C(=O)Nc2ccc(OC(F)(F)F)cc2)C[C@@H](c2ccccc2)C1` [3a] gave an enrich.exp.med ([1]; Comp, protein DDX3X O00571) of 1.089, an enrich.exp.med.lin [1, 16] of 2.128 and an enrich.exp.med.log2 [1, 16] of 1.089. It also gave an enrich.exp.med [2] of 0.9271, an enrich.exp.med [3] of 0.7266 and an enrich.exp.med [4] of 0.5956. It also gave an enrich.exp.med [5] of 0.8526, an enrich.exp.med ([6]; Comp, protein IMPDH2 P12268) of 0.9888 and an enrich.exp.med.lin [6, 17] of 1.985. It also gave an enrich.exp.med.log2 [6, 17] of 0.9888, an enrich.exp.med ([7]; Comp, protein CAD P27708) of 1.9642 and an enrich.exp.med.lin [7, 18] of 3.902. It also gave an enrich.exp.med.log2 [7, 18] of 1.9642, an enrich.exp.med [8] of 0.8946 and an enrich.exp.med [9] of 0.8422. For the same compound, the enrich.exp.med [10] was 0.6036, the enrich.exp.med [11] was 0.8298 and the enrich.exp.med ([12]; Comp, protein EIF3I Q13347) was 1.022. It also gave an enrich.exp.med.lin [12, 19] of 2.03, an enrich.exp.med.log2 [12, 19] of 1.022 and an enrich.exp.med [13] of 0.7694. For the same compound, the enrich.exp.med [14] was 0.7148 and the enrich.exp.med [15] was 0.8565.
